We go through twelve compounds from PubChem BioAssay (NCI).

Each structure is given as a SMILES string.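 Five concentrations, 48 hours, 96-well plates. TGI marks complete inhibition of growth.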

Holding throughout (assay): DTP human tumour cell line panel, 48 h
Test [1] deals with 786-0 renal.
The subject of test [2] is BT-549 breast.
For test [3], the system named is CAKI-1 renal.
The subject of test [4] is COLO 205 colon.
The subject of test [5] is EKVX NSCLC.
In test [6] the test system is HL-60(TB) leukemia.
Test [7] concerns HS 578T breast.
For test [8], the system named is IGROV1 ovarian.
Test [9] deals with KM12 colon.
Test [10] deals with LOX IMVI melanoma.
Test [11] concerns M14 melanoma.
Test [12] concerns MCF7 breast.
Test [13] deals with NCI/ADR-RES ovarian.
Test [14] relates to OVCAR-8 ovarian.
Test [15] relates to SF-295 CNS.
Test [16] deals with SF-539 CNS.
The subject of test [17] is SK-MEL-28 melanoma.
Test [18] deals with UO-31 renal.
The test system of test [19] is NCI-H226 lung.

The TGI is the concentration at which net growth stops. Higher therefore signals less potent growth arrest. As for `COc1cc(Cn2c3c(c4cc(O)ccc42)C(=O)c2ccccc2C3=O)cc(OC)c1`, the TGI is 10.2 µM in test [1]; 4.86 µM in test [2]; 55.5 µM in test [3]; 34.7 µM in [4]; 48.2 µM in [5]; over 100 µM in test [6]. For the same compound, the TGI is over 100 µM in [7]; 13 µM in test [8]; 54.8 µM in test [9]; over 100 µM in test [10]; 67.5 µM in [11]; 50.6 µM in [12]. The TGI in test [13] came out at 28.8 µM; in [14], 19.1 µM; in test [15] it was 23.6 µM; in test [16], 7.38 µM; in test [17], 28.4 µM; in test [18], 30.4 µM.
Consider `CC(C)(C)OC(=O)C(C1NC(C(=O)O)C(C)(C)S1)N1C(=O)c2ccccc2C1=O` (stereo not drawn), for which the TGI in test [1], in test [2], in test [3], in test [4], in test [5] and in test [6] was over 100 µM in each case. Further, the TGI in test [7], in test [8], in [9], in test [10], in test [11] and in [12] was over 100 µM throughout. In addition, the TGI in test [13], in test [14], in test [15], in test [16], in test [17] and in test [18] was over 100 µM throughout.
For `c1ccc(C2CC(N3CCOCC3)=Nc3ccccc3N2)cc1` (stereo not drawn), the TGI in [1], in test [2], in test [3], in test [4], in test [5] and in [6] was over 100 µM in each case. In addition, the TGI in [7], in [8], in [9], in [11], in test [19] and in test [13] was over 100 µM throughout. The TGI in test [14], in test [15], in test [16], in test [17] and in [18] was over 100 µM in each case.
Regarding `Cn1cc(-c2ccc(CCOC3CCCCO3)cc2)c2c(C#N)cccc21` (stereo not drawn), the TGI was over 100 µM in test [1]; over 100 µM in test [2]; over 100 µM in [3]; 67.5 µM in test [4]; over 100 µM in [5]; over 100 µM in test [6]. For the same compound, the TGI in test [7], in [8], in [9], in [10], in test [11] and in [12] was over 100 µM throughout. Moreover, the TGI in [13] is over 100 µM; in test [14] it was over 100 µM; in test [15], over 100 µM; in test [16], over 100 µM; in [17], 42.4 µM; in test [18], over 100 µM.
Consider `CCCCCCCCCCCCCCCCCCNc1ccn(C2OC(CO)C(OP(=O)(O)OCC3CCC(n4ccc(N)nc4=O)O3)C2O)c(=O)n1` (stereo not drawn), for which the TGI in test [1] was over 100 µM; in test [2], 89.8 µM; in test [3], over 100 µM; in test [4], over 100 µM; in [5] it was over 100 µM; in test [6] it was 43.6 µM. The TGI in test [7], in test [8], in [9], in [10], in test [11] and in test [19] was over 100 µM in each case. Moreover, the TGI in [13] is over 100 µM; in test [14], over 100 µM; in [15], over 100 µM; in test [16] it was over 100 µM; in test [17], over 100 µM; in test [18], 56.7 µM.
In the case of `CC1C(c2ccccc2O)c2cc3c(cc2OC1N1CCCC1)OCO3` (stereo not drawn), the TGI in [1] was 91 µM; in test [2], over 100 µM; in test [3], over 100 µM; in [4], 55.5 µM; in test [5], over 100 µM; in test [6] it was 35.1 µM. For the same compound, the TGI was 43.3 µM in [7]; over 100 µM in test [8]; over 100 µM in test [9]; 44.3 µM in [10]; 36.8 µM in [11]; 67.4 µM in test [12]. Also, the TGI in test [19] is over 100 µM; in test [14], over 100 µM; in [15] it was 74.9 µM; in test [16], 50.2 µM; in test [17], 46.6 µM; in [18] it was over 100 µM.
Take `COC(=O)C(Cc1ccccc1)NS(=O)(=O)c1ccc(-c2c3nc(c(-c4ccc(S(=O)(=O)NC(Cc5ccccc5)C(=O)OC)cc4)c4ccc([nH]4)c(-c4ccc(S(=O)(=O)NC(Cc5ccccc5)C(=O)OC)cc4)c4nc(c(-c5ccc(S(=O)(=O)NC(Cc6ccccc6)C(=O)OC)cc5)c5ccc2[nH]5)C=C4)C=C3)cc1` (stereo not drawn): the TGI in test [1], in [2], in test [3], in test [4], in [5] and in test [6] was over 100 µM in each case. Moreover, the TGI in test [7] is 62 µM; in [8] it was over 100 µM; in [9] it was over 100 µM; in test [10], over 100 µM; in test [11], over 100 µM; in [12] it was over 100 µM. In addition, the TGI in test [13], in test [14], in test [15], in [16], in test [17] and in test [18] was over 100 µM in each case.
In the case of `COc1cc2c[n+](C)c3c4ccccc4ccc3c2cc1OC`, the TGI is 60.4 µM in [1]; 16.7 µM in test [2]; over 100 µM in test [3]; 5.6 µM in test [4]; over 48.2 µM in test [5]; 13 µM in [7]. Moreover, the TGI in [9] was 2.65 µM; in [10], 45 µM; in test [11], 42.6 µM; in test [12], over 100 µM; in [19], 14.4 µM; in test [13] it was over 100 µM. Also, the TGI is 16.8 µM in test [14]; over 73.3 µM in [15]; 23.7 µM in test [16]; 18.1 µM in [17]; over 100 µM in test [18].
With `CC(C)(C)OC(=O)C1/C(=C/CO)CN1C(=O)OC(C)(C)C` (stereo not drawn), the TGI in test [1], in [2], in [3], in [4], in test [5] and in test [6] was over 100 µM each time. Moreover, the TGI in test [7], in [8], in test [10], in test [11], in test [12] and in [13] was over 100 µM in each case. In addition, the TGI in test [14], in test [15], in test [16], in test [17] and in [18] was over 100 µM each time.
Regarding `COC(=O)c1ccccc1CC1Cc2cc3c(cc2C1)CCC3`, the TGI in [1] was over 100 µM; in [3], over 100 µM; in [4], 52.7 µM; in [5] it was over 100 µM; in test [6] it was 23.4 µM; in test [7], over 100 µM. Further, the TGI in test [8] is over 100 µM; in [9] it was 71.1 µM; in [10] it was 47.8 µM; in [11] it was 93.4 µM; in [12] it was over 100 µM; in test [19] it was over 100 µM. The TGI in test [13], in test [14], in test [15], in test [16], in test [17] and in [18] was over 100 µM in each case.
In the case of `COC(CNC(=O)C(C)NC(=O)C(C)NC(=O)c1ccccc1)OC` (stereo not drawn), the TGI in test [1], in test [2], in test [3], in test [4], in test [5] and in test [7] was over 100 µM in each case. Moreover, the TGI in test [8], in [9], in test [11], in test [12], in test [19] and in [13] was over 100 µM each time. Moreover, the total growth inhibition concentration (TGI) in test [14], in [15] and in [16] was over 100 µM in each case.
Consider `COc1cccc(/C=N/n2c(-c3ccccc3)n[nH]c2=O)c1`, for which the TGI in test [1] was over 100 µM; in test [2], 86.1 µM; in test [3], over 100 µM; in [4] it was over 100 µM; in test [5] it was over 100 µM; in test [7], 38.8 µM. Besides, the total growth inhibition concentration (TGI) is over 100 µM in test [9]; over 100 µM in [11]; over 100 µM in test [12]; over 100 µM in test [19]; over 100 µM in test [13]; 96.9 µM in [14]. The TGI in test [15] is 54.4 µM; in test [16] it was over 100 µM; in test [17], over 100 µM; in [18], over 100 µM.
